We go through 17 compounds from patent US5726184A, “Tetralin compounds with improved MDR activity” (Vertex Pharmaceuticals Incorporated, priority 1995, dated 1998).

Read-outs that look alike come from different tables or passages of the source. Bounds are passed on as bounds.

One assay deals with HL60/ADR cells. As to the kind of experiment: Reversal of MRP-mediated MDR in HL60/ADR cells (doxorubicin with or without MDR inhibitor). It counts as cell-based. The conditions noted are these: for Fold reversal (IC50 doxorubicin alone / IC50 doxorubicin + MDR inhibitor): HL60/ADR. As for the experimental part: We plated HL60/ADR cells in 96 well microtiter plates (4×10^4 cells/well). The cells were then exposed to various concentrations of doxorubicin (50 nM to 10 μM) in the presence or absence of various compounds of this invention at various concentrations (0.5-10 μM). After culturing the cells for 3 days, their viability was quantitated using the XTT dye method to assess mitochondrial function. […] IC50 values are expressed in nM. In all assays the intrinsic antiproliferative or cytotoxicity activity of the MDR inhibitors was also determined for HL60/ADR cells.

The test system of another assay is L1210vDOX. As to the kind of experiment: Reversal of MDR in L1210vDOX (MDR sensitization assay, doxorubicin with or without MDR inhibitor). The format is cell-based, mouse. The conditions noted are these: for IC50: 3 days.
[1] abbreviates: IC50 of doxorubicin in presence of 0.5 μM Cpd, read-out: IC50 DOX + 0.5 μM Cpd.
[2] abbreviates: IC50 of doxorubicin in presence of 1.0 μM Cpd, read-out: IC50 DOX + 1.0 μM Cpd.
Where [3] appears, read: IC50 of doxorubicin in presence of 2.5 μM Cpd, read-out: IC50 DOX + 2.5 μM Cpd.

By IC50 is commonly meant the concentration needed to halve the response being measured. For `COc1cccc2c1C(=O)c1c(O)c3c(c(O)c1C2=O)C[C@@](O)(C(=O)CO)C[C@@H]3O[C@H]1C[C@H](N)[C@H](O)[C@H](C)O1` [DOX, doxorubicin, reference compound], the IC50 in the assay with HL60/ADR cells (Homo sapiens, 72 h, doxorubicin alone, control of the compound of the line, HL60/ADR cells, 3 days, read-out: IC50 DOX Alone) turned out to be 3500 nM.

Take `CCCOc1cc2c(c(OCCC)c1C)CC[C@@H](Cc1cccnc1)[C@@H]2OC(=O)[C@@H]1CCCCN1C(=O)C(=O)c1cc(OC)c(OC)c(OC)c1` (single isomer, unassigned) [Compound 30B]: the “MDR ratio (IC50 Dox / IC50 Dox+Inhibitor)” value with L1210vDOX (MDR ratio at 0.5 μM Cpd) is given as 1.4; in the assay on L1210vDOX (MDR ratio at 1.0 μM Cpd) it was 2.0; in the assay with L1210vDOX (MDR ratio at 2.5 μM Cpd) it was more than 7.0.

On to `COc1cc(C(=O)C(=O)N2CCCC[C@H]2C(=O)N[C@H]2CCCc3ccc(OCc4ccncc4)cc32)cc(OC)c1OC` [Compound 11B, 1-(2-Oxo-2-(3,4,5-trimethoxyphenyl)-acetyl)-piperidine-2(S)-carboxylic acid 2-((7-pyridin-4-ylmethoxy)-1,2,3,4-tetrahydronaphthalen-1(S)-yl) amide], for which the IC50 with L1210vDOX (setting [1]) turned out to be 400 nM; in the assay on L1210vDOX (setting [2]), 325 nM; in the assay on L1210vDOX (setting [3]), 70 nM. In addition, the entries for the “MDR ratio (IC50 Dox / IC50 Dox+Inhibitor)” value in the assay with L1210vDOX (MDR ratio at 0.5 μM Cpd), with L1210vDOX (MDR ratio at 1.0 μM Cpd) and with L1210vDOX (MDR ratio at 2.5 μM Cpd) were 1.8, 2.2 and 10.0, respectively.

In the case of `COc1cc(C(=O)C(=O)N2CCCC[C@H]2C(=O)O[C@@H]2CCCc3ccc(OCc4ccncc4)cc32)cc(OC)c1OC` [Compound 7, 1-(2 -Oxo-2(3,4,5-trimethoxyphenyl)-acetyl)-piperidine-2(S)-carboxylic acid 2-((7-pyridin-4-ylmethoxy)-1,2,3,4-tetrahydronaphthalen-1(R)-yl) ester], the “MDR ratio (IC50 Dox / IC50 Dox+Inhibitor)” value is on record as 23.1 with L1210vDOX (MDR ratio at 0.5 μM Cpd), 4.8 with L1210vDOX (MDR ratio at 1.0 μM Cpd) and 9.5 with L1210vDOX (MDR ratio at 2.5 μM Cpd).

Turning to `COc1cc(C(=O)C(=O)N2CCCC[C@H]2C(=O)OC2CCCc3c(OCc4ccncc4)cccc32)cc(OC)c1OC` (stereo partly drawn) [Compound 9, 1-(2-Oxo-2-(3,4,5-trimethoxyphenyl)-acetyl)-piperidine-2(S)-carboxylic acid 2-((5-pyridin-4-ylmethoxy)-1,2,3,4-tetrahydronaphthalen-1-yl) ester], the IC50 came to 750 nM in the assay with L1210vDOX (setting [1]), 350 nM in the assay with L1210vDOX (setting [2]) and 175 nM in the assay with L1210vDOX (setting [3]). The “MDR ratio (IC50 Dox / IC50 Dox+Inhibitor)” value in the assay on L1210vDOX (MDR ratio at 0.5 μM Cpd) is 6.4; in the assay on L1210vDOX (MDR ratio at 1.0 μM Cpd) it was 13.7; in the assay with L1210vDOX (MDR ratio at 2.5 μM Cpd), 22.8.

For the compound `COc1cc(C(=O)C(=O)N2Cc3ccccc3C[C@H]2C(=O)O[C@H]2CCCc3ccc(OCc4ccncc4)cc32)cc(OC)c1OC` [Compound 18, 2-(2-Oxo-2-(3,4,5-trimethoxyphenyl)-acetyl)-1,2,3,4-tetrahydroisoquinoline-3(S)-carboxylic acid 2-((7-pyridin-4-ylmethoxy)-1,2,3,4-tetrahydronaphthalen-1(S)-yl) ester], the “MDR ratio (IC50 Dox / IC50 Dox+Inhibitor)” value in the assay with L1210vDOX (MDR ratio at 0.5 μM Cpd) was found to be 3.3; with L1210vDOX (MDR ratio at 1.0 μM Cpd), 6.7; in the assay on L1210vDOX (MDR ratio at 2.5 μM Cpd), 10.0.

On to `COc1cc(C(=O)C(=O)N(C)[C@@H](Cc2ccccc2)C(=O)O[C@H]2CCCc3ccc(OCc4ccncc4)cc32)cc(OC)c1OC` [Compound 21], for which the “MDR ratio (IC50 Dox / IC50 Dox+Inhibitor)” value in the assay with L1210vDOX (MDR ratio at 0.5 μM Cpd) was found to be 5.4; in the assay with L1210vDOX (MDR ratio at 1.0 μM Cpd) it was 6.8; with L1210vDOX (MDR ratio at 2.5 μM Cpd), 8.7. For the same compound, the figures for the “Fold reversal (IC50 doxorubicin alone / IC50 doxorubicin + MDR inhibitor)” value in the assay on HL60/ADR cells (ratio at 0.5 μM Cpd), in the assay with HL60/ADR cells (ratio at 1.0 μM Cpd) and in the assay with HL60/ADR cells (ratio at 2.5 μM Cpd) were 3.5, 3.2 and 23, respectively.

Turning to `CCCOc1cc2c(c(OCCC)c1C)CC[C@H](Cc1cccnc1)[C@@H]2OC(=O)[C@@H]1CCCCN1C(=O)C(=O)c1cc(OC)c(OC)c(OC)c1` [Compound 29A], the figures for the concentration for half-maximal inhibition (IC50) with L1210vDOX (setting [1]), with L1210vDOX (setting [2]) and in the assay with L1210vDOX (setting [3]) were 250 nM, 190 nM and less than 50 nM, respectively. Besides, the entries for the “MDR ratio (IC50 Dox / IC50 Dox+Inhibitor)” value with L1210vDOX (MDR ratio at 0.5 μM Cpd), with L1210vDOX (MDR ratio at 1.0 μM Cpd) and with L1210vDOX (MDR ratio at 2.5 μM Cpd) were 1.4, 1.8 and more than 7.0, respectively.

With `COc1cc(C(=O)C(=O)N2Cc3ccccc3C[C@H]2C(=O)O[C@@H]2CCCc3ccc(OCc4ccncc4)cc32)cc(OC)c1OC` [Compound 17, 2-(2-Oxo-2-(3,4,5-trimethoxyphenyl)-acetyl)-1,2,3,4-tetrahydroisoquinoline-3(S)-carboxylic acid 2-((7-pyridin-4-ylmethoxy)-1,2,3,4-tetrahydronaphthalen-1(R)-yl) ester], the “MDR ratio (IC50 Dox / IC50 Dox+Inhibitor)” value in the assay with L1210vDOX (MDR ratio at 0.5 μM Cpd) is 5.6; in the assay with L1210vDOX (MDR ratio at 1.0 μM Cpd) it was 8.7; with L1210vDOX (MDR ratio at 2.5 μM Cpd), 11.1. The “Fold reversal (IC50 doxorubicin alone / IC50 doxorubicin + MDR inhibitor)” value with HL60/ADR cells (ratio at 0.5 μM Cpd) stood at 2.3; in the assay on HL60/ADR cells (ratio at 1.0 μM Cpd) it was 11.7; in the assay with HL60/ADR cells (ratio at 2.5 μM Cpd), 11.7.

With `COc1cc(C(=O)C(=O)N2CCCC[C@H]2C(=O)O[C@H]2CCCc3ccc(OCc4ccncc4)cc32)cc(OC)c1OC` [Compound 6, 1-(2-Oxo-2-(3,4,5-trimethoxyphenyl)-acetyl)-piperidine-2(S)-carboxylic acid 2-((7-pyridin-4-ylmethoxy)-1,2,3,4-tetrahydronaphthalen-1(S)-yl) ester], the “MDR ratio (IC50 Dox / IC50 Dox+Inhibitor)” value came to 4.8 in the assay on L1210vDOX (MDR ratio at 0.5 μM Cpd), 6.3 in the assay with L1210vDOX (MDR ratio at 1.0 μM Cpd) and 9.5 with L1210vDOX (MDR ratio at 2.5 μM Cpd). Moreover, the “Fold reversal (IC50 doxorubicin alone / IC50 doxorubicin + MDR inhibitor)” value with HL60/ADR cells (ratio at 0.5 μM Cpd) was 8.8; with HL60/ADR cells (ratio at 1.0 μM Cpd) it was 6.4; in the assay on HL60/ADR cells (ratio at 2.5 μM Cpd), 39.

In the case of `CCCOc1cc2c(c(OCCC)c1C)CC[C@@H](Cc1cccnc1)[C@H]2OC(=O)[C@@H]1CCCCN1C(=O)C(=O)c1cc(OC)c(OC)c(OC)c1` (single isomer, unassigned) [Compound 29B], the “MDR ratio (IC50 Dox / IC50 Dox+Inhibitor)” value in the assay with L1210vDOX (MDR ratio at 0.5 μM Cpd) is 1.8; in the assay on L1210vDOX (MDR ratio at 1.0 μM Cpd), 3.7; in the assay on L1210vDOX (MDR ratio at 2.5 μM Cpd) it was more than 7.0.

Consider `COc1cc(C(=O)C(=O)N[C@@H](Cc2ccccc2)C(=O)O[C@@H]2CCCc3ccc(OCc4ccncc4)cc32)cc(OC)c1OC` [Compound 19, 3-Benzyl-2(S)-((2-oxo-2-(3,4,5-trimethoxyphenyl-)acetyl)amino) propanoic acid ((7-pyridin-4-ylmethoxy)-1,2,3,4-tetrahydronaphthalen-1(R)-yl) ester], for which the “MDR ratio (IC50 Dox / IC50 Dox+Inhibitor)” value with L1210vDOX (MDR ratio at 0.5 μM Cpd) is 1.6; in the assay with L1210vDOX (MDR ratio at 1.0 μM Cpd), 2.4; in the assay on L1210vDOX (MDR ratio at 2.5 μM Cpd) it was 6.3.

As for `COc1cc(C(=O)C(=O)N2CCCC[C@H]2C(=O)N(Cc2ccccc2)C2CCCc3ccc(OCc4ccncc4)cc32)cc(OC)c1OC` (single isomer, unassigned) [Compound 16], the “MDR ratio (IC50 Dox / IC50 Dox+Inhibitor)” value in the assay on L1210vDOX (MDR ratio at 0.5 μM Cpd) is 2.2; with L1210vDOX (MDR ratio at 1.0 μM Cpd), 7.1; with L1210vDOX (MDR ratio at 2.5 μM Cpd) it was more than 8.5. In addition, the “Fold reversal (IC50 doxorubicin alone / IC50 doxorubicin + MDR inhibitor)” value is 2.3 in the assay with HL60/ADR cells (ratio at 0.5 μM Cpd), 39 with HL60/ADR cells (ratio at 1.0 μM Cpd) and more than 60 in the assay with HL60/ADR cells (ratio at 2.5 μM Cpd).

Consider `COc1cc(C(=O)C(=O)N(C)[C@@H](Cc2ccccc2)C(=O)O[C@@H]2CCCc3ccc(OCc4ccncc4)cc32)cc(OC)c1OC` [Compound 20, 3-Benzyl-2(S)-(methyl-(2-oxo-2-(3,4,5-trimethoxyphenyl)-acetyl)amino) propanoic acid ((7-pyridin-4-ylmethoxy)-1,2,3,4-tetrahydronaphthalen-1(R)-yl) ester], for which the entries for the “MDR ratio (IC50 Dox / IC50 Dox+Inhibitor)” value in the assay with L1210vDOX (MDR ratio at 0.5 μM Cpd), in the assay on L1210vDOX (MDR ratio at 1.0 μM Cpd) and in the assay with L1210vDOX (MDR ratio at 2.5 μM Cpd) were 3.0, 7.0 and 10.5, respectively.

As to `COc1cc(C(=O)C(=O)N2CCCC[C@H]2C(=O)N[C@@H]2CCCc3ccc(OCc4ccncc4)cc32)cc(OC)c1OC` [Compound 11A, 1-(2-Oxo-2-(3,4,5-trimethoxyphenyl)-acetyl)-piperidine-2(S)-carboxylic acid 2-((7-pyridin-4-ylmethoxy)-1,2,3,4-tetrahydronaphthalen-1(R)-yl) amide], the values for the IC50 with L1210vDOX (setting [1]), with L1210vDOX (setting [2]) and with L1210vDOX (setting [3]) were 650 nM, 350 nM and 175 nM, respectively. Moreover, the “MDR ratio (IC50 Dox / IC50 Dox+Inhibitor)” value in the assay with L1210vDOX (MDR ratio at 0.5 μM Cpd) was 1.1; in the assay on L1210vDOX (MDR ratio at 1.0 μM Cpd), 2.0; with L1210vDOX (MDR ratio at 2.5 μM Cpd), 4.0.

As for `CCCOc1cc2c(c(OCCC)c1C)CC[C@H](Cc1cccnc1)[C@H]2OC(=O)[C@@H]1CCCCN1C(=O)C(=O)c1cc(OC)c(OC)c(OC)c1` (single isomer, unassigned) [Compound 30A], the “MDR ratio (IC50 Dox / IC50 Dox+Inhibitor)” value with L1210vDOX (MDR ratio at 0.5 μM Cpd) is 1.4; in the assay with L1210vDOX (MDR ratio at 1.0 μM Cpd), 2.3; in the assay with L1210vDOX (MDR ratio at 2.5 μM Cpd), more than 7.0.

On to `COc1cc(C(=O)C(=O)N2CCCC[C@H]2C(=O)N(Cc2ccccc2)C2CCCc3ccc(OCc4ccncc4)cc32)cc(OC)c1OC` (single isomer, unassigned) [Compound 15], for which the “MDR ratio (IC50 Dox / IC50 Dox+Inhibitor)” value is recorded as 6.1 with L1210vDOX (MDR ratio at 0.5 μM Cpd), more than 8.5 with L1210vDOX (MDR ratio at 1.0 μM Cpd) and more than 8.5 in the assay on L1210vDOX (MDR ratio at 2.5 μM Cpd).
